Holding throughout (type): in vitro ADME
One test concerns the target T1, CYP2B6 (Homo sapiens, UniProt P20813).
T1 construct: tissue Corning Gentest BD UltraPool HLM 150; host or cells: pooled human liver microsomes
T1 sequence (P20813 1-491): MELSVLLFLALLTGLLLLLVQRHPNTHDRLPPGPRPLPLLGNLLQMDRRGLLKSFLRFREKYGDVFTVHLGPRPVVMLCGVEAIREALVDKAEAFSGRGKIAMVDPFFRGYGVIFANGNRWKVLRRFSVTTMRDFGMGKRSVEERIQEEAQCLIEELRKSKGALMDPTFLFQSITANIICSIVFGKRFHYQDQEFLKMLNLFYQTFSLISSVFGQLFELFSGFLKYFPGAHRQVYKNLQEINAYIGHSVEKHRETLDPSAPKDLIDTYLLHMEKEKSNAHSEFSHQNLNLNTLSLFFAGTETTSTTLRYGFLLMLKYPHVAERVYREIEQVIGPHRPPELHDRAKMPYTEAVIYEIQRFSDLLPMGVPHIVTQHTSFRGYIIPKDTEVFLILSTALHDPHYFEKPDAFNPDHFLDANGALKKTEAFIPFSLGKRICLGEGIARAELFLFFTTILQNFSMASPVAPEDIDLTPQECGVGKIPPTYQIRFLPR
The experiment in a line: CYP inhibition, cocktail of probe substrates in pooled human liver microsomes: bupropion hydroxylation. The settings on record: pooled HLMs, substrate 50 μM. How it is done: (§1) All incubations were performed in duplicate, and data are presented as means. Briefly, each reaction was performed with 0.5 mg/mL pooled human liver microsomes in a final incubation volume of 0.1 mL. The incubation medium consisted of 0.1 M potassium phosphate buffer (pH 7.4) containing cocktail of probe substrates and a NADPH-generating system (NGS) of 0.1 M glucose 6-phosphate, 10 mg/mL β-NADPH, and 1.0 U/mL glucose-6-phosphate dehydrogenase. To investigate the IC50 of bakuchicin during CYP1A inhibition, bakuchicin (at final concentrations of 0–25 μM) was incubated without preincubation. In addition, the mixture with bakuchicin was preincubated for 15 min without the probe substrate cocktail in the presence or absence of 1 mM β-NADPH. After the reaction was initiated by adding the NGS for 60 min, incubated samples were terminated by adding 100 μL acetonitrile containing 0.1% formic acid and 2.5 μL of internal standard solution (5 μM reserpine) in methanol. After mixing and centrifuging at 13,000 ×g for 12 min, a 5 μL aliquot was injected onto a C18 column for LC-MS/MS analysis.
(§2) All measurements were performed using LC-MS/MS in multiple reaction monitoring mode. LC-MS/MS was performed using an Accela™ LC system coupled to a TSQ Vantage triple quadrupole mass spectrometer (Thermo Fisher Scientific Inc., USA) equipped with a HESI-II Spray source. Electrospray ionization was performed in positive mode at a spray voltage of 3,500 V (except for the detection of 6-hydroxy chlorzoxazone). Nitrogen was used as a sheath and auxiliary gas at optimum values of 45 and 20 (arbitrary units), respectively. Vaporizer and capillary temperatures were 150 and 300°C, respectively. For LC analysis an Inertsil® ODS-2 (3 μm, 2.1 × 150 mm) column (GL Sciences Inc., Torrance, CA) was used. The mobile phase consisted of acetonitrile (mobile phase A) and water (mobile phase B), both of which contained 0.1% formic acid, at a flow rate of 0.22 mL/min at 30°C.
(§3) All incubations were performed in duplicate, and data are presented as means. […]
(In general: Liver microsomes are vesicles of endoplasmic reticulum, rich in cytochrome P450 enzymes.)

The target in a further test is T2, CYP2C8 (Homo sapiens, UniProt P10632).
T2 construct: each reaction was performed with 0.5 mg/mL pooled human liver microsomes; tissue Corning Gentest BD UltraPool HLM 150; host or cells: pooled human liver microsomes
T2 sequence (P10632 1-490): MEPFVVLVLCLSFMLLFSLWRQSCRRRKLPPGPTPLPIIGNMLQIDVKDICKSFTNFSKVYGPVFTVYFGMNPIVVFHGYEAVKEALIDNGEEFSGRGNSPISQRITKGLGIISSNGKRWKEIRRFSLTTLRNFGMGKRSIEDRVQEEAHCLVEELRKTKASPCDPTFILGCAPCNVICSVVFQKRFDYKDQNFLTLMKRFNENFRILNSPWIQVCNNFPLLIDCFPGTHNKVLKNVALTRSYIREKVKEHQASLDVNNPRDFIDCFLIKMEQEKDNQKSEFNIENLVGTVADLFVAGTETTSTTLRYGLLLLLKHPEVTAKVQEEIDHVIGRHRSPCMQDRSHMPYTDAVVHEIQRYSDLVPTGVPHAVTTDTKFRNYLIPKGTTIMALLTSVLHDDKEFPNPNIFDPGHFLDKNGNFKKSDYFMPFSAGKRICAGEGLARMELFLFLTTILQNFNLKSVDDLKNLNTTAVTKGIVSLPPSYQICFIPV
The experiment in a line: CYP inhibition, cocktail of probe substrates in pooled human liver microsomes: paclitaxel hydroxylation. To be noted: pooled HLMs, substrate 10 μM.

In a further test the target is T3, CYP2C9 (Homo sapiens, UniProt P11712).
T3 construct: each reaction was performed with 0.5 mg/mL pooled human liver microsomes; tissue Corning Gentest BD UltraPool HLM 150; host or cells: pooled human liver microsomes
The experiment in a line: CYP inhibition, cocktail of probe substrates in pooled human liver microsomes: diclofenac 4'-hydroxylation. To be noted: pooled HLMs, substrate 10 μM.

Another test concerns the target T4, CYP2C19 (Homo sapiens, UniProt P33261).
T4 construct: tissue Corning Gentest BD UltraPool HLM 150; host or cells: pooled human liver microsomes
The test is described as follows: CYP inhibition, cocktail of probe substrates in pooled human liver microsomes: omeprazole 5-hydroxylation. To be noted: pooled HLMs, substrate 20 μM. How it is done:
as §1, §2, §3

For another test, the target named is T5, CYP2E1 (Homo sapiens, UniProt P05181).
T5 construct: tissue Corning Gentest BD UltraPool HLM 150; host or cells: pooled human liver microsomes
The test is described as follows: CYP inhibition, cocktail of probe substrates in pooled human liver microsomes: chlorzoxazone 6-hydroxylation. To be noted: pooled HLMs, substrate 50 μM. How it is done: as §1, §2, §3

In another test the target is T6, CYP3A4 (Homo sapiens, UniProt P08684).
T6 construct: each reaction was performed with 0.5 mg/mL pooled human liver microsomes; tissue Corning Gentest BD UltraPool HLM 150; host or cells: pooled human liver microsomes
The experiment in a line: CYP inhibition, cocktail of probe substrates in pooled human liver microsomes: midazolam 1'-hydroxylation. To be noted: pooled HLMs, substrate 2.5 μM.

Where [1] appears, read: 15 min preincubation with NADPH, read-out: IC50 With preincubation with NADPH.
[2] abbreviates: 15 min preincubation without NADPH, read-out: IC50 With preincubation Without NADPH.
[3] abbreviates: without preincubation, read-out: IC50 Without preincubation.

Molecules are shown by their SMILES. Where two headings read alike, the source gives them in different places.

For orientation: IC50 means the concentration that inhibits the measured activity by half.

T4 sequence (P33261 whole entry): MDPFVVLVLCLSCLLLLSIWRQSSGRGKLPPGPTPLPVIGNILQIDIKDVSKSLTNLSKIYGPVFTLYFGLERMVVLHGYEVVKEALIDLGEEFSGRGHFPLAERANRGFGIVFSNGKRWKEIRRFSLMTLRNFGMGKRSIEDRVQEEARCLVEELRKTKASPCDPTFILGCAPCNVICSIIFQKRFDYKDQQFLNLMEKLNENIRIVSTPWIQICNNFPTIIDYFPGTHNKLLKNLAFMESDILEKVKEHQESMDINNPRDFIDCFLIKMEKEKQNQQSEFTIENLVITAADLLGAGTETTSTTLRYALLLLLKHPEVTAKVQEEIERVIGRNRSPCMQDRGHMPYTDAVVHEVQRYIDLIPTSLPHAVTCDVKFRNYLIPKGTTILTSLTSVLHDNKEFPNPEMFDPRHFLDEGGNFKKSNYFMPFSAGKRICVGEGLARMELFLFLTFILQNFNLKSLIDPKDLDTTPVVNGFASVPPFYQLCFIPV
T5 sequence (P05181 whole entry): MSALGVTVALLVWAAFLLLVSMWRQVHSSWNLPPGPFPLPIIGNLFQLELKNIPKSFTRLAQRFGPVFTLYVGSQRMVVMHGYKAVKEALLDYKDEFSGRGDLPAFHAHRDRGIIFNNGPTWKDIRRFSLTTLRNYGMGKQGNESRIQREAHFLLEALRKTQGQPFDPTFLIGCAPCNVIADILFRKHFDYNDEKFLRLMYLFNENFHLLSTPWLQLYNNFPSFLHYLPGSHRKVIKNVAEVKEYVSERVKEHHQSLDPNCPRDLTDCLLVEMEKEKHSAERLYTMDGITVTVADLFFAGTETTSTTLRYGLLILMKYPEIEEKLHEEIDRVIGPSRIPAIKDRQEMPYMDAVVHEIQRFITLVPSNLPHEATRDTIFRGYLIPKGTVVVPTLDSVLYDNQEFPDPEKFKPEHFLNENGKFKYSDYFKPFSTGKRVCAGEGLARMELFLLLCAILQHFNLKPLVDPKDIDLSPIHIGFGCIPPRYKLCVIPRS
T6 sequence (P08684 whole entry): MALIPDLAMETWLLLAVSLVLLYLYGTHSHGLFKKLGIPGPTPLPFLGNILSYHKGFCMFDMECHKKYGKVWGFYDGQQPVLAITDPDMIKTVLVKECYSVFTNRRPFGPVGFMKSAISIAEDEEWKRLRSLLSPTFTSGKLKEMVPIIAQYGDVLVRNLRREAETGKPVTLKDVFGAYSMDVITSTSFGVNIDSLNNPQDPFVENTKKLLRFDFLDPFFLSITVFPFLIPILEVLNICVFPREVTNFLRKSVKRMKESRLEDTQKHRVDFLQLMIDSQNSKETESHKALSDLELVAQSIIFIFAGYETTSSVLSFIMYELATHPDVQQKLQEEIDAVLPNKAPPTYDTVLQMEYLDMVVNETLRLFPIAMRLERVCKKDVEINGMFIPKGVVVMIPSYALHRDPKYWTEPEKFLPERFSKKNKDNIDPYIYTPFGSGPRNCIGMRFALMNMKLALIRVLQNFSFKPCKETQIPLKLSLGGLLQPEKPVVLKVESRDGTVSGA
T3 sequence (P11712 whole entry): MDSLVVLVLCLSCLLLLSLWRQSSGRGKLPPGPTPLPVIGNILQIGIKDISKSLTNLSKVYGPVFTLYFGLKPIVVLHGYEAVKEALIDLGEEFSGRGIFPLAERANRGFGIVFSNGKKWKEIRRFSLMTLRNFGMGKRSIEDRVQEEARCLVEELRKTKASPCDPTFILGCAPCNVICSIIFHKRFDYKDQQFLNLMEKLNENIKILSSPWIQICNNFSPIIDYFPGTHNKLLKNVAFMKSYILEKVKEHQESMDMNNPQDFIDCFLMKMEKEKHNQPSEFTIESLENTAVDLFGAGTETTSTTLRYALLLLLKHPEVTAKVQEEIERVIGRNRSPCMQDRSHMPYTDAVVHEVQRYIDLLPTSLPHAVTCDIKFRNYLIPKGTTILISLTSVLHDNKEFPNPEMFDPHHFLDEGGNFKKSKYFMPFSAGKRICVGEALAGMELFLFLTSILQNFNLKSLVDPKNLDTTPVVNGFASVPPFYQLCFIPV

Regarding `O=c1ccc2c(ccc3ccoc32)o1` [Bakuchicin], the half-maximal inhibitory concentration (IC50) is 11.5 µM on CYP2B6 (setting [1]); 16.4 µM on CYP2B6 (setting [2]); 14.2 µM at CYP2B6 (setting [3]); over 100 µM at CYP2C8 (setting [1]); over 100 µM on CYP2C8 (setting [2]); over 100 µM on CYP2C8 (setting [3]). In addition, the IC50 on CYP2C9 (setting [1]), on CYP2C9 (setting [2]), at CYP2C9 (setting [3]), at CYP2C19 (setting [1]), on CYP2C19 (setting [2]) and on CYP2C19 (setting [3]) was over 100 µM throughout. Moreover, the IC50 on CYP2E1 (setting [1]), on CYP2E1 (setting [2]), at CYP2E1 (setting [3]), on CYP3A4 (setting [1]), on CYP3A4 (setting [2]) and on CYP3A4 (setting [3]) was over 100 µM each time.

The values are drawn from paper PMC4763008, “Selective Inhibition of Bakuchicin Isolated from Psoralea corylifolia on CYP1A in Human Liver Microsomes” (Evidence-based Complementary and Alternative Medicine : eCAM, 2016).
